Source: patent US9919998B2, “Antibacterial agents: Nα-aroyl-N-aryl-phenylalaninamides” (priority 2014, dated 2018)
≈ marks a conversion by molar mass, not a printed value.

How the values were obtained:
Format in all cases: cell-based
[1] = test system: Mycobacterium tuberculosis H37Rv; assay: Microplate Alamar Blue assay (MABA) MIC, M. tuberculosis; details: read-out: MIC Mycobacterium tuberculosis H37Rv
From the text: (§1) Minimal inhibitory concentrations (MICs) in Mycobacterium tuberculosis H37Rv and Mycobacterium avium ATCC 25291 were quantified using microplate Alamar Blue assays as described (MABA; [Collins, L. & Franzblau, S. (1997) Microplate Alamar Blue assay versus BACTEC 460 system for high-throughput screening of compounds against Mycobacterium tuberculosis and Mycobacterium avium. Antimicrob. Agents Chemother. 41, 1004-1009]).

[2] = test system: Mycobacterium avium ATCC 25291; assay: Microplate Alamar Blue assay (MABA) MIC, M. avium; details: ATCC25291, M. avium ATCC 25291
From the text: as §1

[3] = test system: Mycobacterium smegmatis ATCC 19420; assay: Broth microdilution MIC, M. smegmatis; details: Mycolicibacterium smegmatis, ATCC19420, M. smegmatis ATCC 19420; read-out: MIC Mycobacterium smegmatis ATCC 19420
From the text: MICs in Mycobacterium smegmatis ATCC 19420 and Mycobacterium smegmatis ATCC 19420 derivatives were quantified using broth microdilution assays as described [Clinical and Laboratory Standards Institute (CLSI/NCCLS) (2009) Methods for Dilution Antimicrobial Susceptibility Tests for Bacteria That Grow Aerobically; Approved Standard, Eighth Edition. CLIS Document M07-A8 (CLIS, Wayne Pa.)].

[4] = test system: Vero E6 ATCC CRL1586 cells; assay: Mammalian-cell cytotoxicity, minimal cytotoxic concentration (CellTiter96)
Procedure: Minimal cytotoxic concentrations (MCCs) against mammalian cells in culture were determined using Vero E6 ATCC CRL1586 cells and the CellTiter96 assay kit (Promega, Inc.). […]

Cc1cccc(NC(=O)C(Cc2ccccc2)NC(=O)c2ccccc2)c1C (stereo not shown) [I-105]
MIC [1]: 3.12 µg/mL (≈ 8.39 µM) | MIC [2]: 12.5 µg/mL (≈ 33.6 µM) | MIC [3]: 0.39 µg/mL (≈ 1.05 µM) | MCC mammalian cells Vero E6 ATCC CRL1586 [4]: 21 µg/mL

CCc1cccc(NC(=O)C(Cc2ccccc2)NC(=O)c2ccccc2)c1C (stereo not shown) [I-116]
MIC [1]: 6.25 µg/mL (≈ 16.2 µM) | MIC [2]: 6.25 µg/mL (≈ 16.2 µM) | MIC [3]: 0.78 µg/mL (≈ 2.02 µM) | MCC mammalian cells Vero E6 ATCC CRL1586 [4]: 90 µg/mL

CCc1ccccc1C(=O)NC(Cc1ccccc1)C(=O)Nc1ccccc1C (stereo not shown) [I-123]
MIC [1]: > 50 µg/mL | MIC [2]: > 50 µg/mL | MIC [3]: 1.56 µg/mL (≈ 4.04 µM) | MCC mammalian cells Vero E6 ATCC CRL1586 [4]: >100 µg/mL

CCCc1ccccc1NC(=O)C(Cc1ccccc1)NC(=O)c1ccccc1 (stereo not shown) [I-126]
MIC [1]: > 50 µg/mL | MIC [2]: > 50 µg/mL | MIC [3]: 1.56 µg/mL (≈ 4.04 µM) | MCC mammalian cells Vero E6 ATCC CRL1586 [4]: 10 µg/mL

CCCc1cccc(NC(=O)C(Cc2ccccc2)NC(=O)c2ccccc2)c1C (stereo not shown) [I-127]
MIC [1]: > 50 µg/mL | MIC [2]: > 50 µg/mL | MIC [3]: 3.12 µg/mL (≈ 7.8 µM) | MCC mammalian cells Vero E6 ATCC CRL1586 [4]: 100 µg/mL

Cc1c(NC(=O)C(Cc2ccccc2)NC(=O)c2ccccc2)cccc1C(C)C (stereo not shown) [I-138]
MIC [1]: 6.25 µg/mL (≈ 15.6 µM) | MIC [2]: > 50 µg/mL | MIC [3]: 0.78 µg/mL (≈ 1.95 µM) | MCC mammalian cells Vero E6 ATCC CRL1586 [4]: >100 µg/mL

O=C(NC(Cc1ccccc1)C(=O)Nc1ccccc1C(F)F)c1ccccc1 (stereo not shown) [I-148]
MIC [1]: 6.25 µg/mL (≈ 15.8 µM) | MIC [2]: > 50 µg/mL | MIC [3]: 3.12 µg/mL (≈ 7.92 µM) | MCC mammalian cells Vero E6 ATCC CRL1586 [4]: 100 µg/mL

Cc1c(NC(=O)C(Cc2ccccc2)NC(=O)c2ccccc2)cccc1C(F)F (stereo not shown) [I-149]
MIC [1]: > 50 µg/mL | MIC [2]: > 50 µg/mL | MIC [3]: 0.39 µg/mL (≈ 0.955 µM) | MCC mammalian cells Vero E6 ATCC CRL1586 [4]: 20 µg/mL

O=C(NC(Cc1ccccc1)C(=O)Nc1ccccc1N1CCCC1)c1ccccc1 (stereo not shown) [I-192]
MIC [1]: 9.4 µg/mL (≈ 22.7 µM) | MIC [2]: 25 µg/mL (≈ 60.5 µM) | MIC [3]: 0.78 µg/mL (≈ 1.89 µM) | MCC mammalian cells Vero E6 ATCC CRL1586 [4]: >100 µg/mL

Cc1c(NC(=O)C(Cc2ccccc2)NC(=O)c2ccccc2)cccc1N1CCCC1 (stereo not shown) [I-193]
MIC [1]: 6.25 µg/mL (≈ 14.6 µM) | MIC [2]: 50 µg/mL (≈ 117 µM) | MIC [3]: 6.25 µg/mL (≈ 14.6 µM) | MCC mammalian cells Vero E6 ATCC CRL1586 [4]: >100 µg/mL

O=C(NC(Cc1ccccc1)C(=O)Nc1ccccc1-n1cncn1)c1ccccc1 (stereo not shown) [I-203]
MIC [1]: 12.5 µg/mL (≈ 30.4 µM) | MIC [2]: 50 µg/mL (≈ 122 µM) | MIC [3]: 0.78 µg/mL (≈ 1.9 µM) | MCC mammalian cells Vero E6 ATCC CRL1586 [4]: >100 µg/mL

O=C(NC(Cc1ccccc1)C(=O)Nc1cccc2[nH]ccc12)c1ccccc1 (stereo not shown) [II-27]
MIC [1]: 12.5 µg/mL (≈ 32.6 µM) | MIC [2]: > 50 µg/mL | MIC [3]: 0.39 µg/mL (≈ 1.02 µM) | MCC mammalian cells Vero E6 ATCC CRL1586 [4]: 41 µg/mL

O=C(NC(Cc1ccccc1)C(=O)Nc1cccc2sccc12)c1ccccc1 (stereo not shown) [II-46]
MIC [1]: 3.12 µg/mL (≈ 7.8 µM) | MIC [2]: 3.12 µg/mL (≈ 7.8 µM) | MIC [3]: 0.195 µg/mL (≈ 0.487 µM) | MCC mammalian cells Vero E6 ATCC CRL1586 [4]: >100 µg/mL

O=C(NC(Cc1ccccc1)C(=O)Nc1cccc2ccsc12)c1ccccc1 (stereo not shown) [II-47]
MIC [1]: 1.56 µg/mL (≈ 3.9 µM) | MIC [2]: 3.12 µg/mL (≈ 7.8 µM) | MIC [3]: 1.56 µg/mL (≈ 3.9 µM) | MCC mammalian cells Vero E6 ATCC CRL1586 [4]: >100 µg/mL

O=C(NC(Cc1ccccc1)C(=O)Nc1cccc2ccoc12)c1ccccc1 (stereo not shown) [II-65]
MIC [1]: > 50 µg/mL | MIC [2]: > 50 µg/mL | MIC [3]: 0.39 µg/mL (≈ 1.01 µM) | MCC mammalian cells Vero E6 ATCC CRL1586 [4]: 78 µg/mL

O=C(NC(Cc1ccc(O)cc1)C(=O)Nc1cccc2c1CCCC2)c1ccccc1 (stereo not shown) [IX-6, N-(3-(4-hydroxyphenyl)-1-oxo-1-((5,6,7,8-tetrahydronaphthalen-1-yl)amino)propan-2-yl)benzamide]
MIC [1]: 6.25 µg/mL (≈ 15.1 µM) | MIC [2]: 6.25 µg/mL (≈ 15.1 µM) | MIC [3]: 1.56 µg/mL (≈ 3.76 µM) | MCC mammalian cells Vero E6 ATCC CRL1586 [4]: 21 µg/mL
